Data set [1] deals with carp. The following applies: in vivo. An excerpt:
(§1) The data in FIG. 8 leads to several conclusions. […] Importantly, members of both the ‘A’ and ‘SP’ AA groups are NOT considered to be physiologically significant. […] Thus, as a direct consequence, it is strongly inferred that only AAs belonging to the ‘B’ and ‘LN’ groups are physiologically significant with regard to the fishes' ability to detect forage via the recognition of solvated AAs.

The conditions of data set [2]: physiological pH; cited from earlier work.
The subject of data set [3] is carp. Put plainly: Stimulatory response (average feeding time/fish) to VAL/LYS solutions, FIG. 8. It counts as in vivo.
Text: FIG. 8 is a graph showing stimulatory response as a function of composition for mixtures of L-Valine (V) and L-Lysine (K).
The relationship between stimulatory response (as determined through average feeding time/fish) and AA ratio for a variety of net equimolar mixtures comprised of VAL (V) and LYS (K), as well as reference solutions containing the respective individual AAs is shown in FIG. 8.
as §1

The values below come from US20120177779A1, “FISH FEEDING STIMULANT AND PRODUCT” (priority 2008, published 2012).

Structures are written as SMILES.

`NC(=O)CC[C@H](N)C(=O)O` [GLU, glutamine]: the “physiological distress on exposure” value in data set [1] was “signs of physiological distress”.

`N[C@@H](Cc1c[nH]cn1)C(=O)O` [L-Histidine]: the fraction protonated entry in data set [2] is on record as “approximately 10%”.

For the compound `NCCCC[C@H](N)C(=O)O` [LYS, L-Lysine], the “stimulatory response (average feeding time/fish)” value in data set [3] (net equimolar VAL/LYS mixtures and 0.5% single AA reference solutions) was “significantly enhanced stimulatory response”.

Consider `N[C@@H](CO)C(=O)O` [SER, serine], for which, in data set [1], the “physiological distress on exposure” value is recorded as “signs of physiological distress”.

Consider `CC(C)[C@H](N)C(=O)O` [VAL, L-Valine], for which the “stimulatory response relative to that observed for a similar strength LYS solution” value in data set [3] (similar concentration (0.5%) solution) is “approximately 50%”.
